Values joined by “and” are separate entries in the source; they are usually repeats but may differ in a detail not shown here. Identical values can stand only once.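 In this assay, cells in 96-well plates receive the compound at five concentrations for 48 hours. Endpoints are linearly interpolated between the surrounding concentrations. GI50 = concentration required for 50% inhibition of growth. At the TGI there is no net growth.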
Assays:
Assay in all cases: NCI-60 cell line screen, 48 h
DU-145 prostate = tested on: DU-145 prostate
HT29 colon = tested on: HT29 colon
NCI-H460 lung = tested on: NCI-H460 lung
SK-OV-3 ovarian = tested on: SK-OV-3 ovarian
NCI-H23 lung = tested on: NCI-H23 lung
TK-10 renal = tested on: TK-10 renal
OVCAR-4 ovarian = tested on: OVCAR-4 ovarian
MDA-MB-435 = tested on: MDA-MB-435
786-0 renal = tested on: 786-0 renal
A498 renal = tested on: A498 renal

Row | SMILES | GI50 (DU-145 prostate) [µM] | TGI (DU-145 prostate) [µM] | GI50 (HT29 colon) [µM] | TGI (HT29 colon) | GI50 (NCI-H460 lung) [µM] | TGI (NCI-H460 lung) [µM] | GI50 (SK-OV-3 ovarian) [µM] | TGI (SK-OV-3 ovarian) [µM] | GI50 (NCI-H23 lung) [µM] | TGI (NCI-H23 lung) [µM] | GI50 (TK-10 renal) [µM] | TGI (TK-10 renal) [µM] | GI50 (OVCAR-4 ovarian) [µM] | TGI (OVCAR-4 ovarian) [µM] | GI50 (MDA-MB-435) [µM] | TGI (MDA-MB-435) [µM] | GI50 (786-0 renal) [µM] | TGI (786-0 renal) [µM] | GI50 (A498 renal) [µM] | TGI (A498 renal) [µM]
1 | CCN1C(=O)N(CC)C2C1NN=c1s/c(=C\c3ccc(C(F)(F)F)cc3)c(=O)n12 (stereo not drawn) | 0.41 | > 32.1 | 0.352 | 11.8 µM | 0.365 | 10.9 | 0.492 | > 100 | 0.585 | > 64.4 | 2.23 | > 62.3 | 0.839 | > 74.5 | 0.169 | 0.437 | 1.23 | > 39 | 0.164 | 0.719
2 | CCCCc1n(Cc2ccc3ccccc3n2)cc[n+]1Cc1ccc2ccccc2n1 | 3.27 | 16.2 | 0.801 | 7.89 µM | 1.87 | 11.3 | 2 | 7.23 | 0.499 | 8.54 | 2.5 | 10.3 | 0.381 | 13.5 | 0.71 | 7.78 | 4.65 | 17.3 | 3.01 | 12.9
3 | FC(F)(F)c1cc(NC(=S)N2c3ccccc3-n3cccc3C2c2cccnc2)cc(C(F)(F)F)c1 (stereo not drawn) | 10.6 | 24.3 | 12.5 | 34.5 µM | 10.5 | 23.4 | 11.9 | 27.5 | 7.01 | 20.6 | 2.9 | 9.39 | 6.24 | 23.8 | 6.57 | 22.1 | 5.31 | 18.7 | 13.7 | 30.3
4 | COc1cc(NS(C)(=O)=O)ccc1Cc1c2ccccc2nc2ccccc12 | 0.0571 | 0.649 | 0.3 | 1.82 µM | < 0.012 | 1.06 | 0.115 | 1.02 | 0.137 | 1.48 | 0.228 | 1.45 | 1.25 | 2.52 | 1.23 | 11.3 | 0.139 | 0.64 | 0.135 | 1.15
5 | CC(C)=Cc1cccc2[nH]c(O)c(N=Nc3ccc(S(N)(=O)=O)cc3)c12 | 5.09 | > 25 | 3.36 | > 25 µM | 1.32 | > 20.5 | 14.5 | > 25 | 7.25 | > 25 | 2.29 | > 25 | 1.26 | > 25 | > 21.4 | > 25 | 9.07 | > 25 | > 25 | > 25
6 | CC1OC(CC(=O)O)Cc2c1c(O)c1c(O)cc(-c3cc(=O)c4c(=O)c5c(c(=O)c=4c3=O)CC(CC(=O)O)OC5C)c(O)c1c2O (stereo not drawn) | 26.2 | 96.2 | 26.1 | 55.6 µM and 94.7 µM | 35 | > 100 | 48.8 | > 100 | 32.7 | 33.9 | 34 | > 93 | 35.1 | 39.7 | 16.8 | 36.7 | 32.1 | 46.7 | – | 58.9
7 | Cc1ccc(-c2nc(/C=N/Nc3cc(C)nc4ccc(Br)cc34)c(C)o2)cc1 | 1.8 | 3.36 | 1.92 | 3.82 µM | 1.94 | 3.73 | 1.8 | 3.29 | 2.09 | 4.75 | 1.82 | 3.29 | 1.89 | 3.49 | 1.72 | 3.12 | 1.86 | 3.67 | 3.73 | 20.4
8 | O=C1c2ccccc2C(=O)c2c1oc1c2c(=O)[nH]c2ccc(Cl)cc21 | 0.279 | 0.781 | 3.7 | 12.9 µM | 0.22 | 0.489 | 0.348 | 1.78 | 0.355 | 1.83 | 0.379 | 1.1 | 0.165 | 0.443 | 0.297 | 1.19 | 0.223 | 0.543 | 0.214 | 0.959
9 | Cc1ccc2[nH]c(C(=O)NN3C(=O)C(C)SC34CCC(C)CC4)c(-c3ccccc3)c2c1 (stereo not drawn) | 21.8 | 54.3 | 13.1 | 29.3 µM | 15.7 | 43.9 | 33.4 | > 100 | 15.2 | 32 | 14.2 | 29.6 | 14.8 | 34.7 | 16.5 | 35.4 | 19 | 52.6 | 17.2 | 35
10 | O=C(Nc1ccccc1Cl)c1ccc(NC2=C(Cl)C(=O)N(C3CCCCC3)C2=O)cc1 | 6.78 | 23.9 | 10.8 | 30 µM | 19.7 | 52.1 | 27.1 | 65.2 | 4.92 | 21.2 | 20.6 | 44.3 | 25.1 | 74.9 | 9.61 | 44.1 | 9.64 | 30.2 | 40.6 | 157
11 | COC(=O)C1=C(C(=O)ON)[C@@H]2C=C[C@@]1([C@@H](Cc1ccccc1)Nc1ccccc1)O2 | 1.84 | 3.67 | 1.89 | 3.97 µM | 16.6 | 32.4 | 15.6 | 29.2 | 14.1 | 28.9 | 1.7 | 3.08 | 1.62 | 3.04 | 4.33 | 16.5 | 1.85 | 3.57 | 12.3 | 24.8
12 | CCOC(=O)Nc1ccc2c(c1)C(=O)N(CC)c1ccccc1O2 | 0.127 | – | 0.0791 | > 39.6 µM | 0.116 | > 100 | 0.157 | > 100 | 0.542 | > 100 | > 100 | > 100 | 0.237 | > 100 | 0.0311 | 0.11 | 0.434 | > 100 | 0.0786 | 11.8
